{"source": "paper PMC6271376", "about": "(Molecules, 2013)", "key": {"[1]": {"assay": "Stability of azacitidine in rat plasma exposed to various storage conditions", "conditions": "for Concentration found: n = 3", "quoted_text": "The selectivity was assessed by comparing the chromatograms of six different batches of blank rat plasma with the corresponding spiked rat plasma. […] The linearity was assessed by weighted (1/x^2) least-squares analysis of six different calibration curves. The LLOQ of the assay was the lowest concentration of the analyte with the recommended precision and accuracy less than 20%. The intra- and inter-day precision (the relative standard deviation, RSD) and accuracy (the relative error, RE) were determined by the analysis of low, medium, and high QC samples (n = 6) on 3 different days. The stability of the QC samples (n = 3) in three complete freeze/thaw cycles (−80 to 20 °C), long-term sample storage (−80 °C for 30 days) and on the bench top (20 °C for 2 h) was assessed. The ready-for-injection stability of the extracted samples in the autosampler rack at 4 °C for 24 h was also evaluated. The analytes were considered stable when the accuracy bias was within ± 20% of the nominal concentration."}, "[2]": {"assay": "Pharmacokinetic study in rats following intravenous administration", "type": "in vivo", "conditions": "Sprague-Dawley, rat, plasma", "experimental": "Male SD rats weighing from 210 to 240 g were used for the PK study. All animal experiments were performed in accordance with institutional guidelines and were approved by the University Committee on Use and Care of Animals, Shenyang Pharmaceutical University. […] Serial blood samples (0.2 mL) were obtained at 0.08, 0.17, 0.25, 0.5, 0.75, 1, 1.5, 2, 3, 4, 6, 8, 10 and 12 h after intravenous administration. All samples were placed into heparinised tubes. The rat plasma samples were centrifuged at 13,000 rpm for 10 min, and the plasma supernatant was collected. THU was added to the plasma supernatant at a final concentration of 100 µM. The plasma was frozen at −80 °C until analysis."}, "[3]": {"conditions": "male SD rats, 2.5 mg/kg, mean ± SD, n = 3"}}}
{"smiles": "Nc1ncn([C@@H]2O[C@H](CO)[C@@H](O)[C@H]2O)c(=O)n1", "note": "[Azacitidine]", "values": [{"measurement": "Concentration found", "setting": "[1]; extracted rat plasma samples, sample rack for 24 h at 4 °C, added 20 ng/mL", "result": 23.8, "unit": "ng/mL"}, {"measurement": "Concentration found", "setting": "[1]; extracted rat plasma samples, sample rack for 24 h at 4 °C, added 10,000 ng/mL", "result": "9,966.3 ng/mL"}, {"measurement": "Concentration found", "setting": "[1]; rat plasma, Ambient, 2 h, added 20 ng/mL", "result": 24.0, "unit": "ng/mL"}, {"measurement": "Concentration found", "setting": "[1]; rat plasma, Ambient, 2 h, added 10,000 ng/mL", "result": "10,388.5 ng/mL"}, {"measurement": "Stability (change in azacitidine concentrations)", "setting": "[1]; rat plasma, all storage conditions of Table 3", "result": "No significant changes"}, {"measurement": "Concentration found", "setting": "[1]; rat plasma, three freeze–thaw cycles, added 20 ng/mL", "result": 24.0, "unit": "ng/mL"}, {"measurement": "Concentration found", "setting": "[1]; rat plasma, three freeze–thaw cycles, added 10,000 ng/mL", "result": "10,073.4 ng/mL"}, {"measurement": "Concentration found", "setting": "[1]; rat plasma, −80 °C, 30 days, added 20 ng/mL", "result": 24.0, "unit": "ng/mL"}, {"measurement": "Concentration found", "setting": "[1]; rat plasma, −80 °C, 30 days, added 10,000 ng/mL", "result": "9,519.1 ng/mL"}, {"measurement": "half-life", "setting": "[2]; male SD rats, single dose 2.5 mg/kg, mean ± SD, n = 3, read-out: t1/2β (elimination half-life) (converted)", "result": "30.4 ± 11.9", "unit": "min"}, {"measurement": "Vd", "setting": "[2]; [3]", "result": "2.07 ± 0.17", "unit": "L/kg"}, {"measurement": "clearance", "setting": "[2]; [3]", "result": 20.9, "unit": "mL/min/kg"}, {"measurement": "AUC(0-inf)", "setting": "[2]; male, SD rats, single dose 2.5 mg/kg", "result": 2000, "unit": "ng·h/mL"}]}
